{
  "source": "patent US7632972B2",
  "about": "“Compounds and methods for treatment of cancer and modulation of programmed cell death for melanoma and other cancer cells” (The Board of Trustees of the University of Illionis, priority 2003, dated 2009)",
  "format_in_all_cases": "cell-based, human",
  "key": {"CCRF-CEM": {"tested_on": "CCRF-CEM", "assay": "NCI 60 cell line screen (SRB), Leukemia", "description": "(§1) The operation of this screen utilizes 60 different human tumor cell lines, representing leukemia, melanoma and cancers of the lung, colon, brain, ovary, breast, prostate, and kidney. The aim is to prioritize for further evaluation, synthetic compounds or natural product samples showing selective growth inhibition or cell killing of particular tumor cell lines. This screen is unique in that the complexity of a 60 cell line dose response produced by a given compound results in a biological response pattern which can be utilized in pattern recognition algorithms. Using these algorithms, it is possible to assign a putative mechanism of action to a test compound, or to determine that the response pattern is unique and not similar to that of any of the standard prototype compounds included in the NCl database (see DTP Overview tab). In addition, following characterization of various cellular molecular targets in the 60 cell lines, it may be possible to select compounds most likely to interact with a specific molecular target.\n(§2) The human tumor cell lines of the cancer screening panel are grown in RPMI 1640 medium containing 5% fetal bovine serum and 2 mM L-glutamine. For a typical screening experiment, cells are inoculated into 96 well microtiter plates in 100 μL at plating densities ranging from 5,000 to 40,000 cells/well depending on the doubling time of individual cell lines. After cell inoculation, the microtiter plates are incubated at 37° C., 5% CO2, 95% air and 100% relative humidity for 24 h prior to addition of experimental drugs.\n(§3) After 24 h, two plates of each cell line are fixed in situ with TCA, to represent a measurement of the cell population for each cell line at the time of drug addition (Tz). Experimental drugs are solubilized in dimethyl sulfoxide at 400-fold the desired final maximum test concentration and stored frozen prior to use. At the time of drug addition, an aliquot of frozen concentrate is thawed and diluted to twice the desired final maximum test concentration with complete medium containing 50 μg/ml gentamicin. Additional four, 10-fold or ½ log serial dilutions are made to provide a total of five drug concentrations plus control. Aliquots of 100 μl of these different drug dilutions are added to the appropriate microtiter wells already containing 100 μl of medium, resulting in the required final drug concentrations.\n(§4) Following drug addition, the plates are incubated for an additional 48 h at 37° C., 5% CO2, 95% air, and 100% relative humidity. For adherent cells, the assay is terminated by the addition of cold TCA. Cells are fixed in situ by the gentle addition of 50 μl of cold 50% (w/v) TCA (final concentration, 10% TCA) and incubated for 60 minutes at 4° C. The supernatant is discarded, and the plates are washed five times with tap water and air dried. Sulforhodamine B (SRB) solution (100 μl) at 0.4% (w/v) in 1% acetic acid is added to each well, and plates are incubated for 10 minutes at room temperature. After staining, unbound dye is removed by washing five times with 1% acetic acid and the plates are air dried. Bound stain is subsequently solubilized with 10 mM trizma base, and the absorbance is read on an automated plate reader at a wavelength of 515 nm. For suspension cells, the methodology is the same except that the assay is terminated by fixing settled cells at the bottom of the wells by gently adding 50 μl of 80% TCA (final concentration, 16% TCA). Using the seven absorbance measurements [time zero, (Tz), control growth, (C), and test growth in the presence of drug at the five concentration levels (Ti)], the percentage growth is calculated at each of the drug concentrations levels. Percentage growth inhibition is calculated as: [(Ti−Tz)/(C−Tz)]×100 for concentrations for which Ti>/=Tz [(Ti−Tz)/Tz]×100 for concentrations for which Ti<Tz.\n(§5) Three dose response parameters are calculated for each experimental agent. […]"}, "K-562": {"tested_on": "K-562", "assay": "NCI 60 cell line screen (SRB), Leukemia", "description": "as §1, §2, §3, §4, §5"}, "MOLT-4": {"tested_on": "MOLT-4", "assay": "NCI 60 cell line screen (SRB), Leukemia", "description": "as §1, §2, §3, §4, §5"}, "RPMI-8226": {"tested_on": "RPMI-8226", "assay": "NCI 60 cell line screen (SRB), Leukemia", "description": "as §1, §2, §3, §4, §5"}, "HOP-62": {"tested_on": "HOP-62", "assay": "NCI 60 cell line screen (SRB), Non-Small Cell Lung Cancer", "description": "as §1, §2, §3, §4, §5"}},
  "data": [
    {"compound": "COc1cccc(CCNC(=O)CC(c2ccccc2)(c2ccccc2)c2ccccc2)c1", "note": "[Compound Z3]", "values": [
      {"measurement": "GI50", "setting": "CCRF-CEM", "value": 8.16, "unit": "µM"},
      {"measurement": "TGI", "setting": "CCRF-CEM", "value": ">1.00E−04"},
      {"measurement": "Percent Growth", "setting": "CCRF-CEM; Log10 Concentration −4.0", "value": 34, "unit": "%"},
      {"measurement": "Percent Growth", "setting": "CCRF-CEM; Log10 Concentration −5.0", "value": 48, "unit": "%"},
      {"measurement": "Percent Growth", "setting": "CCRF-CEM; Log10 Concentration −6.0", "value": 74, "unit": "%"},
      {"measurement": "Percent Growth", "setting": "CCRF-CEM; Log10 Concentration −7.0", "value": 94, "unit": "%"},
      {"measurement": "Percent Growth", "setting": "CCRF-CEM; Log10 Concentration −8.0", "value": 62, "unit": "%"},
      {"measurement": "CC50", "setting": "CCRF-CEM; read-out: LC50 (the source's name)", "value": "> 100", "unit": "µM"},
      {"measurement": "GI50", "setting": "K-562; K-562", "value": 6.03, "unit": "µM"},
      {"measurement": "TGI", "setting": "K-562; K-562", "value": ">1.00E−04"},
      {"measurement": "Percent Growth", "setting": "K-562; K-562, Log10 Concentration −4.0", "value": 32, "unit": "%"},
      {"measurement": "Percent Growth", "setting": "K-562; K-562, Log10 Concentration −5.0", "value": 36, "unit": "%"},
      {"measurement": "Percent Growth", "setting": "K-562; K-562, Log10 Concentration −6.0", "value": 100, "unit": "%"},
      {"measurement": "Percent Growth", "setting": "K-562; K-562, Log10 Concentration −7.0", "value": 100, "unit": "%"},
      {"measurement": "Percent Growth", "setting": "K-562; K-562, Log10 Concentration −8.0", "value": 102, "unit": "%"},
      {"measurement": "CC50", "setting": "K-562; K-562, read-out: LC50 (the source's name)", "value": "> 100", "unit": "µM"},
      {"measurement": "GI50", "setting": "MOLT-4; MOLT-4", "value": 6.01, "unit": "µM"},
      {"measurement": "TGI", "setting": "MOLT-4; MOLT-4", "value": ">1.00E−04"},
      {"measurement": "Percent Growth", "setting": "MOLT-4; MOLT-4, Log10 Concentration −4.0", "value": 33, "unit": "%"},
      {"measurement": "Percent Growth", "setting": "MOLT-4; MOLT-4, Log10 Concentration −5.0", "value": 34, "unit": "%"},
      {"measurement": "Percent Growth", "setting": "MOLT-4; MOLT-4, Log10 Concentration −6.0", "value": 107, "unit": "%"},
      {"measurement": "Percent Growth", "setting": "MOLT-4; MOLT-4, Log10 Concentration −7.0", "value": 123, "unit": "%"},
      {"measurement": "Percent Growth", "setting": "MOLT-4; MOLT-4, Log10 Concentration −8.0", "value": 116, "unit": "%"},
      {"measurement": "CC50", "setting": "MOLT-4; MOLT-4, read-out: LC50 (the source's name)", "value": "> 100", "unit": "µM"},
      {"measurement": "GI50", "setting": "RPMI-8226; RPMI-8226", "value": 4.98, "unit": "µM"},
      {"measurement": "TGI", "setting": "RPMI-8226; RPMI-8226", "value": ">1.00E−04"},
      {"measurement": "Percent Growth", "setting": "RPMI-8226; RPMI-8226, Log10 Concentration −4.0", "value": 24, "unit": "%"},
      {"measurement": "Percent Growth", "setting": "RPMI-8226; RPMI-8226, Log10 Concentration −5.0", "value": 29, "unit": "%"},
      {"measurement": "Percent Growth", "setting": "RPMI-8226; RPMI-8226, Log10 Concentration −6.0", "value": 98, "unit": "%"},
      {"measurement": "Percent Growth", "setting": "RPMI-8226; RPMI-8226, Log10 Concentration −7.0", "value": 100, "unit": "%"},
      {"measurement": "Percent Growth", "setting": "RPMI-8226; RPMI-8226, Log10 Concentration −8.0", "value": 92, "unit": "%"},
      {"measurement": "CC50", "setting": "RPMI-8226; RPMI-8226, read-out: LC50 (the source's name)", "value": "> 100", "unit": "µM"},
      {"measurement": "GI50", "setting": "HOP-62; HOP-62", "value": 59.4, "unit": "µM"},
      {"measurement": "TGI", "setting": "HOP-62; HOP-62", "value": ">1.00E−04"},
      {"measurement": "Percent Growth", "setting": "HOP-62; HOP-62, Log10 Concentration −4.0", "value": 40, "unit": "%"},
      {"measurement": "Percent Growth", "setting": "HOP-62; HOP-62, Log10 Concentration −5.0", "value": 83, "unit": "%"},
      {"measurement": "Percent Growth", "setting": "HOP-62; HOP-62, Log10 Concentration −6.0", "value": 97, "unit": "%"},
      {"measurement": "Percent Growth", "setting": "HOP-62; HOP-62, Log10 Concentration −7.0", "value": 105, "unit": "%"},
      {"measurement": "Percent Growth", "setting": "HOP-62; HOP-62, Log10 Concentration −8.0", "value": 92, "unit": "%"},
      {"measurement": "CC50", "setting": "HOP-62; HOP-62, read-out: LC50 (the source's name)", "value": "> 100", "unit": "µM"}
    ]}
  ]
}
